Measurements taken from ChEMBL document CHEMBL2034892, “The relevance of higher plants in lead compound discovery programs” (J Nat Prod, 2011).
Converted amounts (≈) assume the structure as drawn. Blank lines part the entries; values can stand above or below the molecule they belong to.

Tests used:
HT-29 = test: Cytotoxicity against human HT-29 cells; format: functional; settings: read-out: ED50 (the source's name)
[1] = molecular target: T1, Taste receptor type 2 member 31 (Homo sapiens, UniProt P59538); test: Inhibition of human TAS2R31 receptor expressed in HEK293T cells overexpressing chimeric G-protein alpha-subunit; format: cell-based, HEK-293T
T1 sequence (P59538 whole entry): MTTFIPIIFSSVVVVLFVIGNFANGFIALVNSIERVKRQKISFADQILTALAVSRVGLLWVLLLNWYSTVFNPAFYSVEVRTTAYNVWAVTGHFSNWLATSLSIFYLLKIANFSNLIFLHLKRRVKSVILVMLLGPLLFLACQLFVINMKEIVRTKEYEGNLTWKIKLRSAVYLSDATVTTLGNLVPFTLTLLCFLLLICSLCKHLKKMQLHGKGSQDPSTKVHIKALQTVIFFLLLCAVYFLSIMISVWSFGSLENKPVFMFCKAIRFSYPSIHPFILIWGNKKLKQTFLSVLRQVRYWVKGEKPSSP

[2] = Inhibition of proteasome; format: subcellular
P388 [3] = test: Antitumor activity against mouse P388 cells xenografted in mouse assessed as increase in life span at 2 mg/kg, iv dosed twice daily for 5 days
P388 [4] = test: Antitumor activity against mouse P388 cells xenografted in mouse assessed as increase in life span at 2.5 mg/kg, ip dosed daily for 5 days; format: functional; settings: route intraperitoneal
[5] = Oral bioavailability in C57BL/6 mouse; format: ADME, organism-based; settings: in vivo
[6] = Systemic availability in ip dosed C57BL/6 mouse; format: ADME, organism-based; settings: in vivo
KB = test: Cytotoxicity against human KB cells; format: functional, cell-based

Compound: CC(C)=CCc1c2c(c(O)c3c1O[C@]14C(=C[C@@H]5C[C@H]1C(C)(C)O[C@@]4(C/C=C(/C)C(=O)O)C5=O)C3=O)C=CC(C)(C)O2
EC50 (HT-29): 360 nM

Compound: COc1cc2c(c(O)c1OC)C(=O)C[C@@H](c1ccc(O)cc1)O2
IC50 [1]: 2500 nM

Compound: COc1cc([C@@H]2CC(=O)c3c(O)cc(O)cc3O2)ccc1OC(=O)C(C)C
IC50 [1]: 2000 nM

Compound: COC(=O)[C@H]1[C@@H](O)[C@@]2(O)c3c(OC)cc(O[C@@H]4O[C@@H]([C@H](O)CO)CO[C@H]4OC)cc3O[C@@]2(c2ccc(OC)cc2)[C@@H]1c1ccccc1 [SILVESTROL]
T/C (P388 [3]): 129%
T/C (P388 [4]): 150%
bioavailability [5]: 1.7%
bioavailability [6]: 100%

Compound: Oc1ccc([C@H]2c3c(O)cc4c(c3[C@@H]3c5c(O)cc6c(c5[C@H]2[C@@H]3c2ccc(O)cc2)[C@H](c2cc(O)cc(O)c2)[C@@H](c2ccc(O)cc2)O6)[C@@H](c2cc(O)cc(O)c2)[C@H](c2ccc(O)cc2)O4)cc1 [VATDIOSPYROIDOL]
EC50 (KB): 1 µg/mL (≈ 1.1 µM)

Further lines, results first:

IC50 [1]: 11300 nM
Compound: COc1cc(-c2cc(=O)c3c(O)c(OC)c(O)cc3o2)ccc1O [JACEOSIDINE]

IC50 [2]: 1300 nM
Compound: O=C1c2c(O)cc(O)cc2O[C@H](c2ccc(O)cc2)[C@H]1c1c(O)cc(O)c2c(=O)cc(-c3ccc(O)c(O)c3)oc12 [MORELLOFLAVONE]

IC50 [1]: 3600 nM
Compound: COc1cc(O)c2c(c1)O[C@H](c1ccc(O)cc1)CC2=O [SAKURANETIN]
